Data as given in PMC8464850, “Sulfonium Ligands of the α7 nAChR” (Molecules, 2021).

Columns and labels:
Assay type in all cases: cell-based
human α7 receptors = target: T1, human α7 receptors (Homo sapiens, UniProt P36544); experiment: Activation of human α7 receptors expressed in Xenopus oocytes, compounds applied alone (two-electrode voltage clamp, net charge); details: for ability to activate α7 when applied alone: 100 µM
T1 construct: expressed in transfected cells; host or cells: Xenopus laevis oocytes (injected RNA)
T1 sequence (P36544 23-502): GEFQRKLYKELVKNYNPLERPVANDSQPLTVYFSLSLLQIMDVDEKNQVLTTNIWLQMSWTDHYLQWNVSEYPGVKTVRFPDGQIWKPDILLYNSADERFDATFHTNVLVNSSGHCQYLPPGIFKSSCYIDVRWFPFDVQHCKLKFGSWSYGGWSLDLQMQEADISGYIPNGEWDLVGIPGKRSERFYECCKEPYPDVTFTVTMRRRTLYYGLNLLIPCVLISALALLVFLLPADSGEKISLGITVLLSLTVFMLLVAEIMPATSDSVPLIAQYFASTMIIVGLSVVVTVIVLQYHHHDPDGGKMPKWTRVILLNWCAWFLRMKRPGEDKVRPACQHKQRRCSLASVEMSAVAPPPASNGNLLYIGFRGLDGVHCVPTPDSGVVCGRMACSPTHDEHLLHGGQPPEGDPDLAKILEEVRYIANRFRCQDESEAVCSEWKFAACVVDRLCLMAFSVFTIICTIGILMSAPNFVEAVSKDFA
Protocol: The sulfonium compounds (Figure 1) were evaluated for their ability to activate human α7 receptors expressed in Xenopus oocytes (Figure 2A). Responses were measured as net charge. […] The average net-charge response to 100 µM S1 was 47 ± 6% of the control responses to 60 µM ACh from the same cells.
Figure 2 Responses of α7 nAChR to sulfonium compounds. (A) Net-charge responses to the applications of the test compounds applied at 100 µM. Net charge was calculated as the integrated area of inward current over a 120 s interval following the 30 s-pre-application period used to establish an initial baseline. […] (B) Averaged net-charge responses (±SEM, n = 8) to applications of S1 across a range of concentrations. Responses were measured relative to preceding 60 µM ACh control responses and then adjusted for the difference between ACh controls and ACh maximum responses. See text for curve-fit values.
The human nAChR clones were obtained from Jon Lindstrom (University of Pennsylvania, Philadelphia, PA, USA). Mouse muscle subunit clones were obtained from Jim Boulter (Salk Institute, La Jolla, CA, USA) and Paul Gardner (Dartmouth, Hanover, NH, USA). The human resistance-to-cholinesterase 3 (RIC3) clone was obtained from Millet Treinin (Hebrew University, Jerusalem, Israel) and co-injected with α7 to improve the level and speed of α7 receptor expression without affecting the pharmacological properties of the receptors. Subsequent to linearization and purification of the plasmid DNAs, RNAs were prepared using the mMessage mMachine in vitro RNA transcription kit (Ambion, Austin, TX, USA).
Oocytes were surgically removed from mature female Xenopus laevis frogs (Nasco, Ft. Atkinson, WI, USA) as previously described. Frogs were maintained in the Animal Care Service facility of the University of Florida, and all procedures were approved by the University of Florida Institutional Animal Care and Use Committee (approval number 202002669).
Experiments were conducted using OpusXpress 6000A (Molecular Devices, Union City, CA, USA). Both the voltage and current electrodes were filled with 3 M KCl. Oocytes were voltage-clamped at −60 mV at room temperature (24 °C). The oocytes were bath-perfused with Ringer’s solution (115 mM NaCl, 2.5 mM KCl, 1.8 mM CaCl2, 10 mM HEPES, and 1 μM atropine, pH 7.2) at 2 mL/min for α7 receptors, or 4 mL/min for heteromeric nAChR. To evaluate the effects of experimental compounds, responses were compared to control ACh-evoked responses, defined as the average of two initial applications of ACh made before test applications. ACh control concentrations were 60 µM for α7 receptors; 100 µM for α4(3)β2(2) and α3β4 receptors; 30 µM for α4β2α6β2β3 and muscle-type (αβ1εδ) receptors; and 10 µM for α4(3)β2(2) and α4(2)β2(2)α5 receptors.
Solutions were applied from 96-well plates via disposable tips. Drug applications were 12 s in duration, followed by 181 s washout periods for α7 receptors, or 6 s in duration followed by 301 s washout periods for heteromeric nAChR. The responses were calculated as both peak current amplitudes and net charge, as previously described. Data were collected at 50 Hz, filtered at 20 Hz for α7 receptors or filtered at 5 Hz for heteromeric nAChR, and analyzed by Clampfit (Molecular Devices, San Jose, CA, USA) and Excel (Microsoft, Redmond, WA, USA). Data were expressed as means ± SEM from at least four oocytes for each experiment and plotted with Kaleidagraph 4.5.2 (Abelbeck Software, Reading, PA, USA). Multi-cell averages were calculated for comparisons of complex responses. Averages of the normalized data were calculated for each of the 10,322 points in each of the 206.44 s traces (acquired at 50 Hz), as well as the standard errors for those averages.

β3α4 β2α6β2 = target: T2, β3α4 β2α6β2 (Homo sapiens, UniProt P17787+P43681+Q15825); experiment: Activation of heteromeric nAChR by S1: β3α4β2α6β2 concatamer
T2 construct: expressed in transfected cells; host or cells: Xenopus laevis oocytes (injected RNA)
T2 sequence (P43681 29-627 limits assumed): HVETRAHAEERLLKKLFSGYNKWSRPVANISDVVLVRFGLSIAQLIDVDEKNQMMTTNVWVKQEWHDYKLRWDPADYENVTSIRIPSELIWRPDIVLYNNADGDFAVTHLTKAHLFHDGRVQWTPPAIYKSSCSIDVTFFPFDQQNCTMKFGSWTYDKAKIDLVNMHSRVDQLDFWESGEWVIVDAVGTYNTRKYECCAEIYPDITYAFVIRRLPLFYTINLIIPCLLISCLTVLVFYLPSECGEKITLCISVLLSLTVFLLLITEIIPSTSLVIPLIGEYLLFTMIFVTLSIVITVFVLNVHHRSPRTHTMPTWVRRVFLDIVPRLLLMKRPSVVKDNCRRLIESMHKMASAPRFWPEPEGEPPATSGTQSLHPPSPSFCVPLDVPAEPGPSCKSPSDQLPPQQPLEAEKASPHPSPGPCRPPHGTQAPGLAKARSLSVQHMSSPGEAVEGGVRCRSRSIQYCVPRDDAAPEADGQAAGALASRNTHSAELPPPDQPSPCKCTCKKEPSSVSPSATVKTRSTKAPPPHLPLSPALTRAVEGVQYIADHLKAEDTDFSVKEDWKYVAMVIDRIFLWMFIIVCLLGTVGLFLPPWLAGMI
T2 sequence (P17787 26-502): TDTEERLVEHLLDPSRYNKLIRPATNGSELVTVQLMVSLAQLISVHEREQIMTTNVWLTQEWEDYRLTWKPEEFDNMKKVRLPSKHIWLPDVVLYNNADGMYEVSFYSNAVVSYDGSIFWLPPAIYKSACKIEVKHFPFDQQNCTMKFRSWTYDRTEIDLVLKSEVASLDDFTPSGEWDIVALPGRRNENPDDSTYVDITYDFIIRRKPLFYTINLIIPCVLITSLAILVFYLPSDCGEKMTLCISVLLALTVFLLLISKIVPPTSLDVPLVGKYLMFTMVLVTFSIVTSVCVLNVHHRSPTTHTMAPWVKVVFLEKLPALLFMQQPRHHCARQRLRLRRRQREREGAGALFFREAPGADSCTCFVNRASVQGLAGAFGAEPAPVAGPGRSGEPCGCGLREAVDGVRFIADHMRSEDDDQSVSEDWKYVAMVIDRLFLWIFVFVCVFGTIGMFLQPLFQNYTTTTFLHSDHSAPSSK
T2 sequence (Q15825 26-494): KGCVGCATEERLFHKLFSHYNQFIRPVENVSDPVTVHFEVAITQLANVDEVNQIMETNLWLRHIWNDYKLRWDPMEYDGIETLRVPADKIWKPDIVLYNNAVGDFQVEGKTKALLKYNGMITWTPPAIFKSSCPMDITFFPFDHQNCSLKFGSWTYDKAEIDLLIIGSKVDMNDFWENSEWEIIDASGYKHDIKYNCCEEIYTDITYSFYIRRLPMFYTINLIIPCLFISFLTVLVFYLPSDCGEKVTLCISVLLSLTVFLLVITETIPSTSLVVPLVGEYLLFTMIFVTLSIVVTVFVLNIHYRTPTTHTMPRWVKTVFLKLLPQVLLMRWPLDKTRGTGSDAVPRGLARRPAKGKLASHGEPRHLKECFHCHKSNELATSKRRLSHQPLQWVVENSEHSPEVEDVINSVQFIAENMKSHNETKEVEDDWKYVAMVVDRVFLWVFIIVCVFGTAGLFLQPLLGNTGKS
Description: (§1) Concatamers were used in order to obtain heteromeric receptors with known subunit composition. The β2-6-α4 concatamer was co-expressed with monomeric α4, β2, or α5 to obtain receptors with the composition α4(3)β2(2), α4(2)β2(3), or α4(2)β2(2)α5, respectively. A concatamer of five linked subunits was used to obtain the β3α4 β2α6β2 receptors. The α3β4 receptors were formed from the co-expression of α3 and β4 subunit monomers at equal ratios. Note that the data were initially measured relative to internal ACh control responses for each oocyte (Methods). Responses were subsequently adjusted for the relative values of the ACh controls and the ACh maximum responses for each of the various subtypes, determined in previous experiments.
(§2) Figure 6 Activation of heteromeric neuronal nAChR by S1. […] Data are the average peak currents (n = 6–8 oocytes ± SEM), measured relative to initial ACh control responses for each oocyte (concentrations listed in Methods). Responses were subsequently adjusted for the relative values of the ACh controls and the ACh maximum responses for each of the various subtypes, determined in previous experiments. […]
(§3) Solutions were applied from 96-well plates via disposable tips. […] The responses were calculated as both peak current amplitudes and net charge, as previously described. […] Multi-cell averages were calculated for comparisons of complex responses. […]

α4(3)β2(2) = target: T3, α4(3)β2(2) (Homo sapiens, UniProt P17787+P43681); experiment: Activation of heteromeric nAChR by S1: α4(3)β2(2)
T3 construct: expressed in transfected cells; host or cells: Xenopus laevis oocytes (injected RNA)
T3 sequence (P17787 26-502): as the sequence (P17787 26-502) above
T3 sequence (P43681 29-627 limits assumed): as the sequence (P43681 29-627 limits assumed) above
T3 sequence (P43681 29-627 limits assumed): as above
Description: as §1, §2, §3

[1] = peak currents relative to ACh maximum

## C[S+](C)C.[I-] [Compound S1, trimethylsulfonium iodide]
Human α7 receptors; 100 µM compound applied alone, same cells
  average net-charge response, % of the control responses to 60 µM ACh: 47 ± 6%
Human α7 receptors; net charge
  ability to activate α7 when applied alone: activated receptors
Human α7 receptors; net charge, listed as trimethylsulfonium
  ability to activate α7 when applied alone: partial agonist
Human α7 receptors; net charge, n = 8, normalized to ACh maximum, Hill fit
  Imax: 84 ± 0.3 % ACh Imax
Human α7 receptors; α7, Hill fit, Table 2, unit printed in text b9 only, read-out: EC50 (S1 Activation)
  EC50: 98 ± 0.5 µM
Human α7 receptors; α7, relative to ACh maximum, Hill fit, Table 2
  IMax (S1 Activation): 0.84 ± 0.01
β3α4 β2α6β2; [1]
  IMax (S1 Activation): 0.71 ± 0.35
β3α4 β2α6β2; peak currents, unit inferred
  EC50: 333 ± 51 µM
α4(3)β2(2); [1]
  IMax (S1 Activation): 1.2 ± 0.2
α4(3)β2(2); peak currents, unit inferred
  EC50: 246 ± 104 µM
